Like-named read-outs stand apart in the source and are kept apart here.
How the values were obtained:
Experiment in all cases: cells
HCT116/VM46 = type: cell-based, human; details: read-out: IC50 (nM) HCT116/VM46
L1210 = type: cell-based, mouse; details: read-out: IC50 (nM) L1210
HCT116 = type: cell-based, human; details: read-out: IC50 (nM) HCT116
[1] = Table 1B, C16′-modified vinblastine analogues
[2] = Table 2B, C10′-substituted vinblastines, single evaluations
[3] = Table 2C, side-by-side, multiple examinations with several independent samples
[4] = Table 1A, C16′-modified anhydrovinblastine analogues
[5] = Table 2A, C10′-substituted anhydrovinblastines, single evaluations
[6] = Homo sapiens, HCT-116/VM46, Table 1A, C16′-modified anhydrovinblastine analogues
[7] = Mus musculus, L1210, Table 1A, C16′-modified anhydrovinblastine analogues
[8] = Homo sapiens, HCT-116, Table 1A, C16′-modified anhydrovinblastine analogues

Row | SMILES | IC50 (HCT116/VM46; [6]) | IC50 (L1210; [7]) | IC50 (HCT116; [8]) | IC50 (HCT116/VM46; Homo sapiens, HCT-116/VM46) | IC50 (L1210; Mus musculus, L1210) | IC50 (HCT116; Homo sapiens, HCT-116) | also measured
1 | CC[C@]1(O)C[C@@H]2CN(CCc3c([nH]c4ccccc34)[C@@](C(=O)OC)(c3cc4c(cc3OC)N(C)[C@H]3[C@@](O)(C(=O)OC)[C@H](OC(C)=O)[C@]5(CC)C=CCN6CC[C@]43[C@@H]65)C2)C1 [Compound 1, Vinblastine, reference compound] |  |  |  |  |  |  | IC50 (HCT116/VM46; [1]): 600 nM; IC50 (HCT116/VM46; [2]): 600 nM; IC50 (HCT116/VM46; [3]): 600 nM; IC50 (L1210; [1]): 6 nM; IC50 (L1210; [2]): 6 nM; IC50 (L1210; [3]): 6 nM
2 | CC[C@]1(O)C[C@H]2CN(CCc3c([nH]c4ccccc34)[C@@](C(=O)OC)(c3cc4c(cc3OC)N(C=O)[C@H]3[C@@](O)(C(=O)OC)[C@H](OC(C)=O)[C@]5(CC)C=CCN6CC[C@]43[C@@H]65)C2)C1 [Compound 2, Vincristine, reference compound] |  |  |  |  |  |  | IC50 (HCT116/VM46; [3]): 700 nM; IC50 (L1210; [3]): 6 nM; IC50 (HCT116; [3]): 7 nM
3 | CCC1=C[C@@H]2CN(CCc3c([nH]c4ccccc34)[C@@](C(=O)OC)(c3cc4c(cc3OC)N(C)[C@H]3[C@@](O)(C(=O)OC)[C@H](OC(C)=O)[C@]5(CC)C=CCN6CC[C@]43[C@@H]65)C2)C1 [Compound 4a, anhydrovinblastine, reference compound] |  |  |  |  |  |  | IC50 (HCT116/VM46; [4]): 600 nM; IC50 (HCT116/VM46; [5]): 600 nM; IC50 (L1210; [4]): 65 nM; IC50 (L1210; [5]): 65 nM; IC50 (HCT116; [4]): 75 nM; IC50 (HCT116; [5]): 75 nM
4 | CCOC(=O)[C@]1(c2cc3c(cc2OC)N(C)C2C(O)(C(=O)OC)[C@H](OC(C)=O)[C@]4(CC)C=CCN5CC[C@]32[C@@H]54)C[C@@H]2C=C(CC)CN(CCc3c1[nH]c1ccccc31)C2 (stereo partly drawn) [Compound 5a] | 4100 nM | 620 nM | 640 nM |  |  |  | 
5 | CCOC(=O)[C@]1(c2cc3c(cc2OC)N(C)C2C(O)(C(=O)OC)[C@H](OC(C)=O)[C@]4(CC)C=CCN5CC[C@]32[C@@H]54)C[C@H]2CN(CCc3c1[nH]c1ccccc31)C[C@](O)(CC)C2 (stereo partly drawn) [Compound 5b] |  |  |  | 830 nM | 60 nM | 70 nM | 
6 | CCC1=C[C@@H]2CN(CCc3c([nH]c4ccccc34)[C@@](C#N)(c3cc4c(cc3OC)N(C)C3C(O)(C(=O)OC)[C@H](OC(C)=O)[C@]5(CC)C=CCN6CC[C@]43[C@@H]65)C2)C1 (stereo partly drawn) [Compound 6a] | 6800 nM | 6500 nM | 6100 nM |  |  |  | 
7 | CC[C@]1(O)C[C@@H]2CN(CCc3c([nH]c4ccccc34)[C@@](C#N)(c3cc4c(cc3OC)N(C)C3C(O)(C(=O)OC)[C@H](OC(C)=O)[C@]5(CC)C=CCN6CC[C@]43[C@@H]65)C2)C1 (stereo partly drawn) [Compound 6b] |  |  |  | 7400 nM | 630 nM | 670 nM | 
8 | CCC1=C[C@@H]2CN(CCc3c([nH]c4ccccc34)[C@@](C(N)=O)(c3cc4c(cc3OC)N(C)C3C(O)(C(=O)OC)[C@H](OC(C)=O)[C@]5(CC)C=CCN6CC[C@]43[C@@H]65)C2)C1 (stereo partly drawn) [Compound 7a] | > 10000 nM | > 10000 nM | > 10000 nM |  |  |  | 
9 | CC[C@]1(O)C[C@@H]2CN(CCc3c([nH]c4ccccc34)[C@@](C(N)=O)(c3cc4c(cc3OC)N(C)C3C(O)(C(=O)OC)[C@H](OC(C)=O)[C@]5(CC)C=CCN6CC[C@]43[C@@H]65)C2)C1 (stereo partly drawn) [Compound 7b] |  |  |  | > 10000 nM | > 10000 nM | > 10000 nM | 
10 | CCC1=C[C@@H]2CN(CCc3c([nH]c4ccccc34)[C@@](C=O)(c3cc4c(cc3OC)N(C)C3C(O)(C(=O)OC)[C@H](OC(C)=O)[C@]5(CC)C=CCN6CC[C@]43[C@@H]65)C2)C1 (stereo partly drawn) [Compound 8a] | > 10000 nM | 6300 nM | 7000 nM |  |  |  | 
11 | CC[C@]1(O)C[C@@H]2CN(CCc3c([nH]c4ccccc34)[C@@](CO)(c3cc4c(cc3OC)N(C)C3C(O)(C(=O)OC)[C@H](OC(C)=O)[C@]5(CC)C=CCN6CC[C@]43[C@@H]65)C2)C1 (stereo partly drawn) [Compound 11b] |  |  |  | > 10000 nM | 6500 nM | 5800 nM | 

— patent US8940754B2, “10′-fluorinated Vinca alkaloids provide enhanced biological activity against MDR cancer cells” (priority 2010, dated 2015)
